Data reported in patent US7960397B2, “6,9-disubstituted purine derivatives and their use as cosmetics and cosmetic compositions” (Institute of Experimental Botany, Academy of Sciences of …, priority 2007, dated 2011).

Key:
[1] = test system: cytokinin-dependent tobacco callus Nicotiana tabacum L. cv. Wisconsin 38; test: Cytokinin activity in tobacco callus bioassay; assay type: cell-based; conditions: for concentration with highest activity: growth of tobacco callus, four weeks of cultivation, tested 10^−8 M to 10^−4 M; for Activity (%) [10^−5 mol · l^−1 BAP = 100%]: increase of fresh callus weight at the concentration with highest activity, 10^−5 M BAP = 100%
Method: Estimation of cytokinin biological activity of novel compounds in callus bioassay. Cytokinin-dependent tobacco callus Nicotiana tabacum L. cv. […] Subcultivation was carried out every three weeks. Fourteen days before the bioassay, the callus tissue was transferred to the media without the compound tested. The biological activity was determined from the increase of the fresh callus weight after four weeks of cultivation. Five replicates were prepared for each concentration of the compound tested and the entire test was repeated twice. […] The relative activity of the compound at this concentration was calculated (Table 8). […] The compounds to be tested were dissolved in dimethylsulfoxide (DMSO) and the solution brought up to 10^−3 M with distilled water. This stock solution was further diluted with the respective media used for the biotest to a concentration ranging from 10^−8 M to 10^−4 M.

[2] = test system: Amaranthus caudatus cotyledon/hypocotyl explants; test: Amaranthus bioassay (betacyanin content); design: species or system Amaranthus caudatus var. atropurpurea; conditions: for concentration with highest activity: betacyanin content after 48 h incubation, tested 10^−8 M to 10^−4 M; for Activity (%) [10^−5 mol · l^−1 BAP = 100%]: betacyanin content at the concentration with highest activity, 10^−5 M BAP = 100%
Method: Testing of novel compounds for typical cytokinin activity in Amaranthus bioassay. A standard Amaranthus bioassay was performed with several modifications. The seeds of Amaranthus caudatus var. atropurpurea were surface-sterilized in 10% (w/v) N-chlorobenzenesulfonamide for 10 min and washed 5 times with deionized water. They were placed in 14 cm Petri dishes containing paper tissues saturated with deionized water. After 72 h of cultivation at 25° C. in darkness, the roots of the seedlings were cut off. The explants, consisting of two cotyledons and hypocotyls, were placed in 5 cm Petri dishes onto two layers of filter paper soaked with 1 ml of the incubation medium containing 10 mmol of NA2HPO4—KH2PO4, pH 6.8, 5 mmol of tyrosine and the compound to be tested. There were 20 explants per dish. The procedure was carried out under a green safe light in a darkroom. […] The concentration of betacyanin was determined from the absorbencies at 537 nm and 620 nm as follows: DA=A537 nm−A620 nm. […] Relative activity of the compound at this concentration was calculated. The activity obtained for 10^−5 M 6-benzylaminopurine (BAP) was defined as 100%.
(§1) The compounds to be tested were dissolved in dimethylsulfoxide (DMSO) and the solution brought up to 10^−3 M with distilled water.

excised wheat leaf tips = test: Antisenescence test, retention of chlorophyll in excised wheat leaf tips; design: species or system Triticum aestivum cv. Hereward; conditions: for activity (%) [10^−4 mol · l^−1 BAP = 100%]: retention of chlorophyll in excised wheat leaf tips at the concentration with highest activity, 10 replicate determinations; for concentration with highest activity: retention of chlorophyll in excised wheat leaf tips, tested range 10^−8 M to 10^−4 M, 96 h in the dark at 25° C.
Method: Testing of antisenescence properties of novel cytokinin compounds on wheat leaf segments. Seeds of winter wheat, Triticum aestivum cv. Hereward, were washed under running water for 24 hours and then sown on vermiculite soaked with the Knop's solution. They were placed in the grow chamber at 25° C. with a 16 h-8 h light period at 50 mmol.m^−2.s^−1. After 7 days, the first leaf was fully developed and the second leaf had started to grow. A 35 mm long tip section of the first leaf, was removed from each of 5 seedlings and trimmed slightly to a combined weight of 100 mg. The basal ends of the five leaf tips were placed in the wells of a microtiter polystyrene plate containing […] of the solution of the tested compound each. The entire plate was inserted into a plastic box lined with paper tissues soaked with distilled water to prevent leaf sections from drying out. After 96 h incubation in the dark at 25° C., the leaves were removed and chlorophyll was extracted by heating at 80° C. for 10 min in 5 ml of 80% ethanol (v/v). The sample volume was then restored to 5 ml by the addition of 80% ethanol (v/v). The absorbance of the extract was recorded at 665 nm. In addition, chlorophyll extracts from fresh leaves and leaf tips incubated in deionized water were measured. […] Relative activity of the compound at this concentration was calculated (Table 7). The activity obtained for 10^−4 M 6-benzylaminopurine (BAP) was defined as 100%. The values shown are means of five replicates and the whole experiment was repeated twice.
as §1

[3] = test system: promyelocytic HL-60 leukemia; test: In vitro cytotoxicity, Calcein AM assay; conditions: read-out: GI50 HL60; HL60, 72 hours, Calcein AM
Method: (§2) Because only metabolically active cells cleave Calcein AM, these assays detect viable cells exclusively. The quantity of reduced Calcein AM corresponds to the number of vital cells in the culture.
(§3) The cells were maintained in Nunc/Corning 80 cm^2 plastic tissue culture flasks and cultured in cell culture medium (DMEM with 5 g/l glucose, 2 mM glutamine, 100 U/ml penicillin, 100 mg/ml streptomycin, 10% fetal calf serum and sodium bicarbonate).
(§4) The cell suspensions that were prepared and diluted according to the particular cell type and the expected target cell density (2,500-30,000 cells per well based on cell growth characteristics) were added by pipette (80 ml) into 96-well microtiter plates. Inoculates were allowed a pre-incubation period of 24 hours at 37° C. and 5% CO2 for stabilization. Four-fold dilutions of the intended test concentration were added at time zero in 20 ml aliquots to the microtiter plate wells. Usually, the compound tested was evaluated at six 4-fold dilutions. […] All drug concentrations were examined in duplicate. Incubations of cells with the tested compounds lasted for 72 hours at 37° C., in a 5% CO2 atmosphere and 100% humidity. At the end of the incubation period, the cells were assayed by using Calcein AM. Ten microliters of the stock solution were pipetted into each well and incubated for 1 hour. Fluorescence (FD) was measured with the Labsystem FIA Reader Fluoroscan Ascent (UK).

[4] = test system: breast carcinoma cell line MCF-7; test: In vitro cytotoxicity, Calcein AM assay; conditions: read-out: GI50 MCF7; MCF7, 72 hours, Calcein AM
Method: as §2, §3, §4

mouse fibroblasts NIH3T3 = test: In vitro cytotoxicity, Calcein AM assay; conditions: read-out: GI50 NIH-3T3; NIH-3T3, 72 hours, Calcein AM
Method: as §2, §3, §4

human osteosarcoma HOS = test: In vitro cytotoxicity, Calcein AM assay; conditions: read-out: GI50 HOS; HOS, 72 hours, Calcein AM
Method: as §2, §3, §4

[5] = test system: human diploid fibroblasts (HCA cells, HCA20, HCA40, HCA60); test: Senescent cells (β-galactosidase staining) in culture of human fibroblasts; assay type: cell-based; conditions: for SENESCENT CELLS (%) HCA20: human fibroblasts passage 20 (HCA20); for SENESCENT CELLS (%) HCA40: human fibroblasts passage 40 (HCA40); for SENESCENT CELLS (%) HCA60: human fibroblasts passage 60 (HCA60)
Method: In this example, human diploid fibroblasts (HCA cells of various passage levels: passage 20—designated HCA20; passage 40—designated HCA40; passage 60—designated HCA60) were stained for β-galactosidase activity. The medium used for the cell cultivation was removed, the cells were washed twice in […], and fixed in 2-3 ml of fixing solution comprised of a 2% formaldehyde and 0.2% glutaraldehyde in PBS. The cells were incubated at room temperature for 5 minutes, and then washed twice with PBS. The cells were subsequently incubated at 37° C.

SMILES | concentration with highest activity [1] | Activity (%) [10^−5 mol · l^−1 BAP = 100%] [1] [%] | concentration with highest activity [2] | Activity (%) [10^−5 mol · l^−1 BAP = 100%] [2] [%] | activity (%) [10^−4 mol · l^−1 BAP = 100%] (excised wheat leaf tips) [%] | concentration with highest activity (excised wheat leaf tips) | GI50 [3] [µM] | GI50 [4] [µM] | GI50 (mouse fibroblasts NIH3T3) [µM] | GI50 (human osteosarcoma HOS) [µM] | SENESCENT CELLS (%) HCA20 [5] [%] | SENESCENT CELLS (%) HCA40 [5] [%] | SENESCENT CELLS (%) HCA60 [5] [%]
C/C(=C\CNc1ncnc2c1ncn2CCCCCl)CO | 10^−4 mol · l^−1 | 103.5 | 10^−4 mol · l^−1 | 123.8 | 73.8 | 10^−4 mol · l^−1 | > 167 | > 167 | > 167 | > 167 |  |  | 
CCOC(C)n1cnc2c(NC/C=C(\C)CO)ncnc21 (stereo not drawn) | 10^−4 mol · l^−1 | 102.8 | 10^−4 mol · l^−1 | 92.5 | 92.5 | 10^−4 mol · l^−1 | > 167 | > 167 | > 167 | > 167 |  |  | 
Oc1ccc(CNc2ncnc3c2ncn3CCCCCl)cc1 [4-hydroxybenzylamino / 4-chlorobutyl, 6-(4-hydroxybenzylamine)-9-(4-chlorobutyl)purine] |  |  | 10^−4 mol · l^−1 | 33.4 | 33.4 | 10^−4 mol · l^−1 | > 167 | > 167 | > 167 | > 167 |  |  | 
CCOCCn1cnc2c(NCc3ccc(O)cc3)ncnc21 [Compound 133, 6-(4-hydroxybenzylamine)-9-(1-ethoxyeth-2-yl)purine] |  |  |  |  |  |  | > 167 | > 167 | > 167 | > 167 |  |  | 
Oc1ccccc1Nc1ncnc2c1ncn2C1CCCCO1 (stereo not drawn) [2-hydroxyanilino / tetrahydropyran-2-yl] | 10^−5 mol · l^−1 | 30 | 10^−4 mol · l^−1 | 65 | 11 | 10^−4 mol · l^−1 |  |  |  |  | 4 | 6 | 29
Oc1ccccc1CNc1ncnc2c1ncn2C1CCCO1 (stereo not drawn) [6-(2-hydroxybenzylamino)-9-(tetrahydrofuran-2-yl)-purine] | 10^−5 mol · l^−1 | 78 | 10^−4 mol · l^−1 | 33 | 26 | 10^−4 mol · l^−1 |  |  |  |  | 4 | 2 | 26
Oc1cccc(CNc2ncnc3c2ncn3C2CCCO2)c1 (stereo not drawn) [6-(3-hydroxybenzylamino)-9-(tetrahydrofuran-2-yl)-purine] | 10^−5 mol · l^−1 | 125 | 10^−4 mol · l^−1 | 107 | 113 | 10^−4 mol · l^−1 |  |  |  |  | 5 | 3 | 25
C/C(=C\CNc1ncnc2c1ncn2C1CCCO1)CO (stereo not drawn) | 10^−5 mol · l^−1 | 89 | 10^−4 mol · l^−1 | 117 | 45 | 10^−4 mol · l^−1 | > 167 | > 167 | > 167 | > 167 |  |  | 
Oc1ccoc1CNc1ncnc2c1ncn2C1CCCCO1 (stereo not drawn) | 10^−6 mol · l^−1 | 52 | 10^−4 mol · l^−1 | 65 | 45 | 10^−4 mol · l^−1 |  |  |  |  | 4 | 4 | 18
Oc1cccc(Nc2ncnc3c2ncn3C2CCCCO2)c1 (stereo not drawn) [3-hydroxyanilino / tetrahydropyran-2-yl] | 10^−5 mol · l^−1 | 65 | 10^−4 mol · l^−1 | 122 | 23 | 10^−4 mol · l^−1 |  |  |  |  | 5 | 4 | 28
COc1cc(Nc2ncnc3c2ncn3C2CCCCO2)cc(OC)c1O (stereo not drawn) | 10^−5 mol · l^−1 | 19 | 10^−4 mol · l^−1 | 10 | 28 | 10^−4 mol · l^−1 |  |  |  |  | 4 | 5 | 22
